Laboratory results from US11155539B2, “4-pyridinylmethyl-morpholine derivatives and the use thereof as medicament” (Boehringer Ingelheim International GmbH, priority 2018, dated 2021).

Experiments:
[1] = biological target: T1, Nav1.6 (Homo sapiens, UniProt Q9UQD0); conditions: reported in WO2015/130905; cited from earlier work
[2] = biological target: T2, NMDA NR1/NR2B receptor (Homo sapiens, UniProt Q13224); assay: In vitro NMDA NR1/NR2B cell assay (FLIPR, intracellular calcium induced by glycine/glutamate); assay type: cell-based; conditions: see Table 2
T2 construct: host or cells: HEK293, tetracycline-inducible expression
T2 sequence (Q13224 27-1484, other chains not shown): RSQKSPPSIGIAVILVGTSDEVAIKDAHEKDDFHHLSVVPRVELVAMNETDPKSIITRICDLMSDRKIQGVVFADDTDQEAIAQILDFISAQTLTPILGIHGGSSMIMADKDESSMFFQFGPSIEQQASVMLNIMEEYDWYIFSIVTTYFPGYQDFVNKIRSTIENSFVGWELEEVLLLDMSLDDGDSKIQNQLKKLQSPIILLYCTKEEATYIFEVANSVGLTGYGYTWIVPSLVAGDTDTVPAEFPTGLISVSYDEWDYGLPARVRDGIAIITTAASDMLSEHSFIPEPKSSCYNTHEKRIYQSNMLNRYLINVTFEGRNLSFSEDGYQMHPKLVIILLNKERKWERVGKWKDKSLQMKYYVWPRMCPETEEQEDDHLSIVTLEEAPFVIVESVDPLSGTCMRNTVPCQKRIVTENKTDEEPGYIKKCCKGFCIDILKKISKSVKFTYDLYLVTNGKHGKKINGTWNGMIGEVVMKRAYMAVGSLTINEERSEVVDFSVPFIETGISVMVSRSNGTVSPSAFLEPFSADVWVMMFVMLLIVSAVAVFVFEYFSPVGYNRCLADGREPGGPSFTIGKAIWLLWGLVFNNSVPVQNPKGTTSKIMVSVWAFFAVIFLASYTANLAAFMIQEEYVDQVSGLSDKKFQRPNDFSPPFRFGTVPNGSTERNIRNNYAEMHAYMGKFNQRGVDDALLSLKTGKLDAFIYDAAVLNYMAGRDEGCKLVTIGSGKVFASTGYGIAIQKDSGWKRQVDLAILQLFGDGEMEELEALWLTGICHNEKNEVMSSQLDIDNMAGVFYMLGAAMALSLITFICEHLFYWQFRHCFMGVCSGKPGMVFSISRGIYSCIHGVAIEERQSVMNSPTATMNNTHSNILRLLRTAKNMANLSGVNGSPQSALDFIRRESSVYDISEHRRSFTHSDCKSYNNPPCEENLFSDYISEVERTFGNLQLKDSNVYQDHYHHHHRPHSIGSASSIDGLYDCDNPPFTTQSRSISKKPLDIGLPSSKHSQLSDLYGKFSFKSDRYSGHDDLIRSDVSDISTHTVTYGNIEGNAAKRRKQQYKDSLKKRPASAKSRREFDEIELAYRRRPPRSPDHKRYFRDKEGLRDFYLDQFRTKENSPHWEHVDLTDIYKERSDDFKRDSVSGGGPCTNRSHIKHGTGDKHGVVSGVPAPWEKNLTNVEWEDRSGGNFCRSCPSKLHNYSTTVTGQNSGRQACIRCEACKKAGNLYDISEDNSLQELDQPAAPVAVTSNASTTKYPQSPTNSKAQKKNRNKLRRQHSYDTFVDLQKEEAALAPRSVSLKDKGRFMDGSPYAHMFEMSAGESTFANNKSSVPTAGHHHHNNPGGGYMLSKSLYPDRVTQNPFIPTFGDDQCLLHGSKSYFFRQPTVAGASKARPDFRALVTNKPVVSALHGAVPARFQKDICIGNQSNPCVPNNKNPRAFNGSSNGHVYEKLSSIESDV
Description: A human HEK293 cell line with tetracyclin-inducible expression of NMDA NR1/NR2B receptor was used as a test system for compound efficacy and potency. The cell line was purchased from ChanTest, Catalog #CT6121. Compound activity was determined by measuring the effect of compounds on intracellular calcium concentration induced by glycine/glutamate agonism in a FLIPRtetra system (Molecular Devices).
The cells were obtained as frozen cells in cryo-vials and stored until use at −150° C. Cells were grown in culture medium (DMEM/F12, 10% FBS, 5 μg/mL Blasticidin, 150 μg/mL Zeozin, 500 μg/mL Geneticin). […] For sub-culturing the cells were detached from flasks by Versene. For the assay, cells were detached, washed twice with induction medium (DMEM/F12 without glutamine, 10% FBS, 2 μg/mL Tetracycline, 2 mM Ketamine) and seeded to 384 well pure coat amine plates (Becton Dickinson, 50000 cells per well in 50 μl) 48 h prior to assay in induction medium.
The test compounds were dissolved in 100% DMSO at a concentration of 10 mM and in a first step diluted in DMSO to a concentration of 5 mM, followed by serial dilution steps in 100% DMSO. Dilution factor and number of dilution steps may vary according to needs. Typically 8 different concentrations by 1:5 dilutions were prepared in duplicate, further intermediate dilutions (1:37.5) of the substances were carried out with aqueous assay buffer (137 mM NaCl, 4 mM KCl, 1.8 mM CaCl2, 10 mM HEPES, 10 mM Glucose, pH 7.4) resulting in a compound concentration 3 times above the final test concentration and DMSO at 2.7% resulting in 0.9% final DMSO concentration in the assay.
At the assay day cells were washed 3× with assay buffer (as described above), 10 μL buffer remained in the wells after washing. 10 μL Ca kit loading buffer (AAT Bioquest; prepared from the kit containing the following components: Component A: Fluo-8 NW dissolved in 200 μL DMSO and 20 μl of this solution are mixed with 10 ml buffer prepared out of component B and C, Component B: 10× Pluronic® F127 Plus diluted 1:10 in component C, Component C: HHBS (Hanks with 20 mM Hepes) was added to the cells and the plates were incubated with lid for 60 minutes at room temperature. 20 μl assay buffer containing 60 μM glycine (20 μM final) and 3 μM glutamate (1 μM final) was added to column 1-23, column 24 got assay buffer without glycine/glutamate to serve as negative unstimulated control. Fluorescence (indicating the calcium influx as a result of the NR1/NR2B ion channel activation) was read on the FLIPRtetra device for 60 seconds to monitor the glutamate induced effects. After 2 minutes 20 μL of compound dilution prepared as described above or controls (row 1-22) in assay buffer were carefully added to the wells. […] The average of 2 measurements at 5 minutes and […] 10 seconds after compound addition is calculated and further used for IC50 calculations. Each assay microtiter compound dilution plate contained wells (in column 23 or 24) with DMSO controls instead of compound as controls for glycine/glutamate induced fluorescence (high controls) and wells with 1 μM of a reference NR2B NAM as low controls (Compound 22; reference: Layton, Mark E et al, ACS Chemical Neuroscience 2011, 2(7), 352-362).
The output file of the reader contains the well number and measured average fluorescence units. For data evaluation and calculation, the measurement of the low control was set as 0% control and the measurement of the high control was set as 100% control. The IC50 values were calculated using the standard 4 parameter logistic regression formula. Calculation: [y=(a−d)/(1+(x/c)^b)+d], a=low value, d=high value; x=conc M; c=IC50 M; b=slope.

[3] = biological target: T1, Nav1.6; assay: Nav 1.6 inhibition, IonWorks Quattro electrophysiology; assay type: cell-based
Description: Determination of Nav 1.6.Inhibition
IonWorks Quattro electrophysiological platform
The compounds were prepared in DMSO at 300× the final assay concentrations of 1 and 5 μM.
The 300×DMSO stock solutions were transferred into assay plates where 2 μl per well of each 300× stock solution were placed. All assay plates were stored at −80° C. until the day of assay.
On the day of the assay, the appropriate assay plate was thawed at room temperature, centrifuged, and 198 μl of external recording solution was added and mixed thoroughly. This provided a 1:100 dilution. A further 1:3 dilution occurred upon addition to the cells in the IonWorks Quattro electrophysiological platform, giving a 1:300 dilution in total. On each assay plate, at least 8 wells were reserved for vehicle control (0.3% DMSO) and at least 8 wells for each positive control specific to the cell line tested. The positive controls were tested at a maximal blocking and an approximate IC50 concentration. As positive control Lidocaine at concentrations of 30 and 1000 μM was used.
The solutions for recording Nav1.6 currents were as follows:
Amphotericin B was used to obtain electrical access to the cell interior at a final concentration of 200 μg/ml in internal recording solution.
State-dependent inhibition: Sodium channels when held at depolarized potential or long test pulse, the channels open and inactivate and then stay inactivated until the membrane potential is stepped back to hyperpolarized potentials, when the inactivated channels recover from inactivation into closed state.
Cells were held at −120 mV. In order to completely inactivate the sodium channels (pulse 1), the cells were pulsed to +0 mV for 2500 ms and stepped back to −120 mV for 10 ms (to completely recover from inactivation, however channels that had drugs bound to them will not recover from inactivation) before stepping to +0 mV for 20 ms (pulse 2).
Both the positive and vehicle control data associated with each cell line assayed are shown below as an example. The mean is shown for each positive and negative control as solid symbol with the total number of individual well replicates given next to the solid symbol. In addition, the individual data of each well are shown on the graph as open symbols so that the variation about the mean value can be readily assessed.
Shown below are the assay controls for the Nav1.6 IonWorks Quattro assay.
Tables 3 and 4 show the normalized percentage inhibition of Nav1.6 channel. […] (see also the figure Assay Control Results above).

T1 sequence (Q9UQD0 whole entry): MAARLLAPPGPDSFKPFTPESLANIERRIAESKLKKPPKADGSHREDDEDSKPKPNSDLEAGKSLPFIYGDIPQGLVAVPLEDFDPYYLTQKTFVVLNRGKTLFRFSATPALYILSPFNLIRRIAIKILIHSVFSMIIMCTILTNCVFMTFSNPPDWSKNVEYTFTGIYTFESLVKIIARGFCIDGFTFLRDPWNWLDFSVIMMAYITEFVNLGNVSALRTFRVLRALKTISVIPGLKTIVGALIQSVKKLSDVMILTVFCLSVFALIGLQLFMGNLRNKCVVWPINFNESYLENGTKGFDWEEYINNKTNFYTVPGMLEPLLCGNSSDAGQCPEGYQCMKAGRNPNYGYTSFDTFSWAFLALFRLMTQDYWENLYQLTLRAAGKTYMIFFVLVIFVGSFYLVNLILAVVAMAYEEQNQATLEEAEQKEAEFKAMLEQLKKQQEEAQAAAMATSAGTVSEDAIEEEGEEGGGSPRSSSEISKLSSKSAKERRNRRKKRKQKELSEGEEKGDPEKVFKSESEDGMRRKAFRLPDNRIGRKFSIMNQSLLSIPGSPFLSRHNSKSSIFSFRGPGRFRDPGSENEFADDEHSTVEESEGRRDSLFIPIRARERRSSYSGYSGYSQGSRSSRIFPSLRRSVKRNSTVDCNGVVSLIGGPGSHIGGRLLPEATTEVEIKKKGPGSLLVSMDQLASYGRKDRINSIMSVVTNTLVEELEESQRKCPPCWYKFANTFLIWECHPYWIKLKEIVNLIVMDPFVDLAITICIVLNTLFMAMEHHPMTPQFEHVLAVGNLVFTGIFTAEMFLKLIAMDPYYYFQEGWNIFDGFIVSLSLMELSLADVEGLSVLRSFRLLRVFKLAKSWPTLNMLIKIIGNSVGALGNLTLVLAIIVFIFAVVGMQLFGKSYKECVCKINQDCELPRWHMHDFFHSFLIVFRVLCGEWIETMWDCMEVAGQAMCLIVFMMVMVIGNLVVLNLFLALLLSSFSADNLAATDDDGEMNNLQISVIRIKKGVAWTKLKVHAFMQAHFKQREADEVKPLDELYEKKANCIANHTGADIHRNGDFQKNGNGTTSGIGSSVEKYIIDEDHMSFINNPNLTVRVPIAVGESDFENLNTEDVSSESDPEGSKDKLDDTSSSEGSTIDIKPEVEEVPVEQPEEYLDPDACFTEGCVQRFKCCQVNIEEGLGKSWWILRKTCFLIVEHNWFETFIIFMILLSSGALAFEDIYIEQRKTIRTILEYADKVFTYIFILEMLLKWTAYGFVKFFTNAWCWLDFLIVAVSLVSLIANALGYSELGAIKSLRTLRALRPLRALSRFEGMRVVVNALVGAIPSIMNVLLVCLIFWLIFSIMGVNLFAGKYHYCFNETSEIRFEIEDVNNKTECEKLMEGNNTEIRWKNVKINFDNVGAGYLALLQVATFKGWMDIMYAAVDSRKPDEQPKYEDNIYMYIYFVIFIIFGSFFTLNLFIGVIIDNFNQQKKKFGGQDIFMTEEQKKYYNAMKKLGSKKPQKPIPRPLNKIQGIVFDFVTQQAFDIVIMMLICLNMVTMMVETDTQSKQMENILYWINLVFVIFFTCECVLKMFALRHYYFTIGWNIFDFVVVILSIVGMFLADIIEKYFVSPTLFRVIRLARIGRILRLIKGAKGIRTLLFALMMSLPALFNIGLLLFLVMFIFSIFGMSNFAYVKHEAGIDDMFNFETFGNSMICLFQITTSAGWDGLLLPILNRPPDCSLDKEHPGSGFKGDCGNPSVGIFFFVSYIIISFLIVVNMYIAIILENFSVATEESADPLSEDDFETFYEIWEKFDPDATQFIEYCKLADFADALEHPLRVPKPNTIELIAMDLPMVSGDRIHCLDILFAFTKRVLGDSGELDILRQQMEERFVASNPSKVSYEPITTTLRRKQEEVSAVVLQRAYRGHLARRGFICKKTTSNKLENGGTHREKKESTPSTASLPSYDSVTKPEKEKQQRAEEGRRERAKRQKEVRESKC

O=C(C1CN(Cc2cccc(Oc3ccccc3)c2)CCO1)N1CCOCC1 (stereo not shown) [Example 106 of WO2015/130905, reference compound]
Nav 1.6 blockage [1]: > 5 µM
activity on the NR1-NR2B ion channel (in words) [2]: do not show any activity
significant inhibition of the Nav 1.6 channel (in words) ([3]; at 5 μM): not showing any significant inhibition
significant inhibition of the Nav 1.6 channel (in words) ([3]; at 1 and 5 μM): do not show any significant inhibition
